Results reported in US10604554B2, “Double-acylated GLP-1 derivatives” (Novo Nordisk A/S, priority 2012, dated 2020).
Numbered stars: 1 amine (or outer) side, 2 acyl side, 3 side chain; on linkers, the order of the positions; unused ones are H or OH. Square brackets hold non-standard residues; d marks the D form. Side chains are listed from the residue outwards. Peptide text beside a SMILES is read from it. * marks the point of attachment. Undecanoyl(11-OPh(4-COOH)) = O=C(O)c1ccc(OCCCCCCCCCCC(=O)*)cc1; γGlu = O=C(O)[C@H](CCC(=O)[*:2])N[*:1]; εLys = N[C@@H](CCCCN[*:1])C(=O)[*:2]; Aib = CC(C)(N)C(=O)O

Experiments:
[1] = target: T1, human GLP-1 receptor (Homo sapiens, UniProt P43220); experiment: In vitro potency (CRE luciferase; whole cells); format: cell-based; parameters: EC50/pM (ratio 1% HSA/0% HSA): unit not given here; details: for EC50/pM (ratio 1% HSA/0% HSA): ratio of EC50 at 1% HSA to EC50 at 0% HSA
T1 construct: expressed in transfected cells; host or cells: BHK cells, clone FCW467-12A/KZ10-1 (parent line BHKTS13), further transfected with CRE luciferase
T1 sequence (P43220 24-463): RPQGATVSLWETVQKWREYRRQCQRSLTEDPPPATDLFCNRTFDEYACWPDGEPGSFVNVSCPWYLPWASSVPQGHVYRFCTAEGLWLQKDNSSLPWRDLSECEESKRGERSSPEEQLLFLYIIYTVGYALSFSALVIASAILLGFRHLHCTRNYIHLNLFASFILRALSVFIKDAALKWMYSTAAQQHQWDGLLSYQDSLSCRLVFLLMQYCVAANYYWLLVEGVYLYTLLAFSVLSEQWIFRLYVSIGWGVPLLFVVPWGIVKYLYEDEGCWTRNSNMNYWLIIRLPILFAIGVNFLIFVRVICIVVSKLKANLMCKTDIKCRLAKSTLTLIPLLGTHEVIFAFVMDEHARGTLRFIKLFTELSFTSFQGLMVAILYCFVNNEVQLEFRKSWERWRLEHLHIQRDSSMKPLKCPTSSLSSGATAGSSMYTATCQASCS
Method: The purpose of this example is to test the activity, or potency, of the GLP-1 derivatives in vitro. The in vitro potency is the measure of human GLP-1 receptor activation in a whole cell assay.
In vitro potency was determined by measuring the response of human GLP-1 receptor in a reporter gene assay. The assay was performed in a stably transfected BHK cell line that expresses the human GLP-1 receptor and contains the DNA for the cAMP response element (CRE) coupled to a promoter and the gene for firefly luciferase (CRE luciferase). When the human GLP-1 receptor was activated it results in the production of cAMP, which in turn results in the luciferase protein being expressed. When assay incubation was completed the luciferase substrate (luciferin) was added and the enzyme converts luciferin to oxyluciferin and produces bioluminescence. The luminescence was measured and was the readout for the assay.
An increase of the in vitro potency, EC50 value, in the presence of serum albumin indicates an affinity to serum albumin and represents a method to predict a protracted pharmacokinetic profile of the test substance in animal models.
The cells were cultured at 5% CO2 in cell culture medium. They were aliquoted and stored in liquid nitrogen. Before each assay an aliquot was taken up and washed twice in PBS before being suspended at the desired concentration in the assay specific buffer.
The following chemicals were used in the assay: Pluronic F-68 (10%) (Gibco 2404), human serum albumin (HSA) (Sigma A9511), ovalbumin (Sigma A5503), DMEM w/o phenol red (Gibco 11880-028), 1 M Hepes (Gibco 15630), Glutamax 100× (Gibco 35050) and steadylite plus (PerkinElmer 6016757).
1) Cell stocks were thawed in a 37° C. water bath.
2) Cells were washed three times in PBS.
3) The cells were counted and adjusted to 5×10^3 cells/50 μl (1×10^5 cells/ml) in assay medium. A 50 μl aliquot of cells was transferred to each well in the assay plate.
4) Stocks of the test compounds and reference compounds were diluted to a concentration of 0.2 μM in 0% assay buffer for the 0% HSA CRE luciferase assay and 1% assay buffer for the HSA CRE luciferase assay. […] 5) A 50 μl aliquot of compound or blank was transferred in triplicate from the dilution plate to the assay plate. […] 7) The assay plate was removed from the incubator and allowed to stand at room temperature for 15 min. 8) A 100 μl aliquot of steadylite plus reagent was added to each well of the assay plate (reagent was light sensitive). 9) Each assay plate was covered with aluminum foil to protect it from light and shaken for 30 min at room temperature. 10) Each assay plate was read in a Packard TopCount NXT instrument. Calculations and Results
The data from the TopCount instrument were transferred to GraphPad Prism software. The software averages the values for each replicate and performs a non-linear regression.

[2] = target: T1, human GLP-1 receptor; experiment: GLP-1 receptor binding (SPA, displacement of 125I-GLP-1)
Method: The purpose of this experiment is to investigate the binding to the GLP-1 receptor of the GLP-1 derivatives, and how the binding is potentially influenced by the presence of albumin. This is done in an in vitro experiment as described below.
In order to test the binding of the derivatives to albumin, the assay was performed with a low concentration of albumin (0.001%—corresponding to the residual amount thereof in the tracer), as well as with a high concentration of albumin (2.0% added). A shift in the binding affinity, IC50, is an indication that the peptide in question binds to albumin, and thereby a prediction of a potential protracted pharmacokinetic profile of the peptide in question in animal models.
Species (in vitro): Hamster
Biological End Point: Receptor Binding
A stable transfected cell line and a high expressing clone were selected for screening. The cells were grown at 5% CO2 in DMEM, 10% FCS, 1% Pen/Strep (Penicillin/Streptomycin) and 1.0 mg/ml of the selection marker G418.
The cells (approx. 80% confluence) were washed twice in PBS and harvested with Versene (aqueous solution of the tetrasodium salt of ethylenediaminetetraacetic acid), following which they were separated by centrifugation at 1000 rpm for 5 min. The cells/cell pellet must be kept on ice to the extent possible in the subsequent steps. The cell pellet was homogenised with Ultrathurrax for 20-30 seconds in a suitable amount of Buffer 1 (depending on the amount of cells, but e.g. 10 ml). The homogenate was centrifuged at 20000 rpm for 15 minutes. The pellet was resuspended (homogenised) in 10 ml Buffer 2 and re-centrifuged. This step was repeated once more. The resulting pellet was resuspended in Buffer 2, and the protein concentration was determined. The membranes were stored at minus 80° C.
Buffer 1:20 mM Na-HEPES+10 mM EDTA, pH 7.4
Buffer 2:20 mM Na-HEPES+0.1 mM EDTA, pH 7.4
Test compounds, membranes, SPA-particles and [^125I]-GLP-1(7-36)NH2 were diluted in assay buffer. 50 ul (micro liter) HSA (“high albumin” experiment containing 2% HSA), or buffer (“low albumin” experiment containing 0.001% HSA) was added to Optiplate, and 25 ul of test compounds were added. 5-10 ug membrane protein/sample was added (50 ul) corresponding to 0.1-0.2 mg protein/ml (to be preferably optimised for each membrane preparation). SPA-particles (Wheatgerm agglutinin SPA beads, Perkin Elmer, # RPNQ0001) were added in an amount of 0.5 mg/well (50 ul). The incubation was started with [^125I]-GLP-1]-(7-36)NH2 (final concentration 0.06 nM corresponding to 49.880 DPM, 25 ul). The plates were sealed with PlateSealer and incubated for 120 minutes at 30° C. while shaking. The plates were centrifuged (1500 rpm, 10 min) and counted in Topcounter.

[3] = Receptor binding affinity IC50 (low HSA), 0.001% HSA (low albumin)

| Compound | EC50/pM (ratio 1% HSA/0% HSA) [1] | IC50 [2, 3] [pM] | EC50 ([1]; In vitro potency (CRE luciferase) EC50 (1% HSA), BHK cells, 1% HSA) [pM] | IC50 ([2]; Receptor binding affinity IC50 (high HSA), 2.0% HSA (high albumin)) [pM] |
| --- | --- | --- | --- | --- |
| CC[C@H](C)[C@H](NC(=O)[C@H](Cc1ccccc1)NC(=O)[C@H](CCC(=O)O)NC(=O)[C@H](CCCCNC(=O)[C@@H](N)CCCCNC(=O)CC[C@H](NC(=O)CC[C@H](NC(=O)CCCCCCCCCCOc1ccc(C(=O)O)cc1)C(=O)O)C(=O)O)NC(=O)[C@H](C)NC(=O)[C@H](C)NC(=O)[C@H](CCC(N)=O)NC(=O)[C@H](CCC(=O)O)NC(=O)[C@H](CCC(=O)O)NC(=O)[C@H](CC(C)C)NC(=O)[C@H](Cc1ccc(O)cc1)NC(=O)[C@H](CO)NC(=O)[C@H](CO)NC(=O)[C@@H](NC(=O)[C@H](CC(=O)O)NC(=O)[C@H](CO)NC(=O)[C@@H](NC(=O)[C@H](Cc1ccccc1)NC(=O)[C@@H](NC(=O)CNC(=O)[C@H](CCC(=O)O)NC(=O)C(C)(C)NC(=O)[C@@H](N)Cc1c[nH]cn1)[C@@H](C)O)[C@@H](C)O)C(C)C)C(=O)N[C@@H](CCC(=O)O)C(=O)N[C@@H](Cc1c[nH]c2ccccc12)C(=O)N[C@@H](CC(C)C)C(=O)N[C@H](C(=O)N[C@@H](CCCNC(=N)N)C(=O)NCC(=O)N[C@@H](CCCNC(=N)N)C(=O)N[C@@H](CCCCNC(=O)[C@@H](N)CCCCNC(=O)CC[C@H](NC(=O)CC[C@H](NC(=O)CCCCCCCCCCOc1ccc(C(=O)O)cc1)C(=O)O)C(=O)O)C(=O)N[C@@H](CCC(=O)O)C(=O)O)C(C)C [Example 42, N^ε26-[(2S)-2-amino-6-[[(4S)-4-carboxy-4-[[(4S)-4-carboxy-4-[11-(4-carboxyphenoxy)undecanoylamino]butanoyl]amino]butanoyl]amino]hexanoyl], N^ε37-[(2S)-2-amino-6-[[(4S)-4-carboxy-4-[[(4S)-4-carboxy-4-[11-(4-carboxyphenoxy)undecanoylamino]butanoyl]amino]butanoyl]amino]hexanoyl]-[Aib^8,Glu^22,Glu^30,Arg^34, Lys^37]-GLP-1-(7-37)-peptidyl-Glu] (H-H[Aib]EGTFTSDVSSYLEEQAAK([εLys-γGlu-γGlu-Undecanoyl(11-OPh(4-COOH))])EFIEWLVRGRK([εLys-γGlu-γGlu-Undecanoyl(11-OPh(4-COOH))])E-OH; N-terminus and C-terminus assumed) | 251 | 20 | – | – |
| CC[C@H](C)[C@H](NC(=O)[C@H](Cc1ccccc1)NC(=O)[C@H](CCC(=O)O)NC(=O)[C@H](CCCCNC(=O)[C@@H](N)CCCCNC(=O)CC[C@H](NC(=O)CC[C@H](NC(=O)CCCCCCCCCCOc1ccc(C(=O)O)cc1)C(=O)O)C(=O)O)NC(=O)[C@H](C)NC(=O)[C@H](C)NC(=O)[C@H](CCC(N)=O)NC(=O)[C@H](CCC(=O)O)NC(=O)[C@H](CCC(=O)O)NC(=O)[C@H](CC(C)C)NC(=O)[C@H](Cc1ccc(O)cc1)NC(=O)[C@H](CO)NC(=O)[C@H](CO)NC(=O)[C@@H](NC(=O)[C@H](CC(=O)O)NC(=O)[C@H](CO)NC(=O)[C@@H](NC(=O)[C@H](Cc1ccccc1)NC(=O)[C@@H](NC(=O)CNC(=O)[C@H](CCC(=O)O)NC(=O)C(C)(C)NC(=O)[C@@H](N)Cc1c[nH]cn1)[C@@H](C)O)[C@@H](C)O)C(C)C)C(=O)N[C@@H](CCC(=O)O)C(=O)N[C@@H](Cc1c[nH]c2ccccc12)C(=O)N[C@@H](CC(C)C)C(=O)N[C@H](C(=O)N[C@@H](CCCNC(=N)N)C(=O)NCC(=O)N[C@@H](CCCNC(=N)N)C(=O)N[C@@H](CCCCNC(=O)[C@@H](N)CCCCNC(=O)CC[C@H](NC(=O)CC[C@H](NC(=O)CCCCCCCCCCOc1ccc(C(=O)O)cc1)C(=O)O)C(=O)O)C(=O)O)C(C)C [Example 41, N^ε26-[(2S)-2-amino-6-[[(4S)-4-carboxy-4-[[(4S)-4-carboxy-4-[11-(4-carboxyphenoxy)undecanoylamino]butanoyl]amino]butanoyl]amino]hexanoyl], N^ε37-[(2S)-2-amino-6-[[(4S)-4-carboxy-4-[[(4S)-4-carboxy-4-[11-(4-carboxyphenoxy)undecanoylamino]butanoyl]amino]butanoyl]amino]hexanoyl]-[Aib^8,Glu^22,Glu^30,Arg^34, Lys^37]-GLP-1-(7-37)-peptide] (H-H[Aib]EGTFTSDVSSYLEEQAAK([εLys-γGlu-γGlu-Undecanoyl(11-OPh(4-COOH))])EFIEWLVRGRK([εLys-γGlu-γGlu-Undecanoyl(11-OPh(4-COOH))])-OH; N-terminus and C-terminus assumed) | 260 | 30 | – | – |
| CC[C@H](C)[C@H](NC(=O)[C@H](Cc1ccccc1)NC(=O)[C@H](CCC(=O)O)NC(=O)[C@H](CCCCNC(=O)[C@@H](N)CCCCNC(=O)[C@@H](N)CCCCNC(=O)CC[C@H](NC(=O)CCCCCCCCCCOc1ccc(C(=O)O)cc1)C(=O)O)NC(=O)[C@H](C)NC(=O)[C@H](C)NC(=O)[C@H](CCC(N)=O)NC(=O)CNC(=O)[C@H](CCC(=O)O)NC(=O)[C@H](CC(C)C)NC(=O)[C@H](Cc1ccc(O)cc1)NC(=O)[C@H](CO)NC(=O)[C@H](CO)NC(=O)[C@@H](NC(=O)[C@H](CC(=O)O)NC(=O)[C@H](CO)NC(=O)[C@@H](NC(=O)[C@H](Cc1ccccc1)NC(=O)[C@@H](NC(=O)CNC(=O)[C@H](CCC(=O)O)NC(=O)C(C)(C)NC(=O)[C@@H](N)Cc1c[nH]cn1)[C@@H](C)O)[C@@H](C)O)C(C)C)C(=O)N[C@@H](C)C(=O)N[C@@H](Cc1c[nH]cn1)C(=O)N[C@@H](CC(C)C)C(=O)N[C@H](C(=O)N[C@@H](CCC(N)=O)C(=O)NCC(=O)N[C@@H](CCCNC(=N)N)C(=O)N[C@@H](CCCCNC(=O)[C@@H](N)CCCCNC(=O)[C@@H](N)CCCCNC(=O)CC[C@H](NC(=O)CCCCCCCCCCOc1ccc(C(=O)O)cc1)C(=O)O)C(=O)O)C(C)C [Example 31, N^ε26-[(2S)-2-amino-6-[[(2S)-2-amino-6-[[(4S)-4-carboxy-4-[11-(4-carboxyphenoxy)undecanoylamino]butanoyl]amino]hexanoyl]amino]hexanoyl], N^ε37-[(2S)-2-amino-6-[[(2S)-2-amino-6-[[(4S)-4-carboxy-4-[11-(4-carboxyphenoxy)undecanoylamino]butanoyl]amino]hexanoyl]amino]hexanoyl]-[Aib^8,His^31,Gln^34,Lys^37]-GLP-1-(7-37)-peptide] | 82 | 760 | 550 | 40000 |
